{"source": "paper PMC6991140", "about": "(Journal of the American Chemical Society, 2017)", "molecular_target": "T1, asialoglycoprotein receptor (ASGPR) (Homo sapiens, UniProt P07306)", "T1 sequence (P07306 1-291)": "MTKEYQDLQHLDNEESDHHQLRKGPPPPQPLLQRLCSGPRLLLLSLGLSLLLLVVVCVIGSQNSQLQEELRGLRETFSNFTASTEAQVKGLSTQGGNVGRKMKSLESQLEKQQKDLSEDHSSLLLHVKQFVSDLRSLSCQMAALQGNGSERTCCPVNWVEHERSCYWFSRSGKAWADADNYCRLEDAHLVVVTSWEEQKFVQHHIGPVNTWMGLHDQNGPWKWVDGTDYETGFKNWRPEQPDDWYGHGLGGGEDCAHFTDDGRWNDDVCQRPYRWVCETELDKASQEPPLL", "assay": "Surface plasmon resonance binding to immobilized ASGPR", "conditions": "calculated from 1/Kads", "data": [{"compound": "CC(=O)N[C@H]1C(O)O[C@H](CO)[C@H](O)[C@@H]1O", "note": "(mixture of isomers) [GalNAc, N-acetylgalactosamine]", "values": [{"measurement": "calculated ligand efficiency (LE)", "value": 0.41}]}]}
